Data taken from ChEMBL document CHEMBL1147511 (Bioorg Med Chem Lett, 2004).

What was measured:
Type in all cases: protein-complex assay
[1] = molecular target: Neuronal acetylcholine receptor; alpha2/beta4 (Rattus norvegicus, UniProt P12389+P12392); experiment: Binding affinity towards Nicotinic acetylcholine receptor alpha2-beta4 using [3H]epibatidine
[2] = molecular target: Neuronal acetylcholine receptor; alpha2/beta2 (Rattus norvegicus, UniProt P12389+P12390); experiment: Binding affinity towards nicotinic acetylcholine receptor alpha2-beta2 using [3H]epibatidine
Sequence of Neuronal acetylcholine receptor; alpha2/beta2 (P12389 whole entry): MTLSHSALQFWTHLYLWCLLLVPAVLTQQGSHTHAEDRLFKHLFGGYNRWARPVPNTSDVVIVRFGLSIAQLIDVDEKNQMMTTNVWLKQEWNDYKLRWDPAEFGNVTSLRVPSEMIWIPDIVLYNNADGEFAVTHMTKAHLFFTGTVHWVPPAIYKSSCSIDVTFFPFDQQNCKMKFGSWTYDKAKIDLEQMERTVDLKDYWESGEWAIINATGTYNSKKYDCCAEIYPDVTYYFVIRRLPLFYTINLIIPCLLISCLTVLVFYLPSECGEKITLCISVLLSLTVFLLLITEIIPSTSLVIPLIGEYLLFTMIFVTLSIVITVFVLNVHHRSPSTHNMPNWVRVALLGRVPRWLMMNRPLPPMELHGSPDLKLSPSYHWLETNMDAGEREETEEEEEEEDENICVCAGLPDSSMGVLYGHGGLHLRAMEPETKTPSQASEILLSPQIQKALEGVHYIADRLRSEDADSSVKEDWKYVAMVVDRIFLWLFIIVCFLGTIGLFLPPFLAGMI
Sequence of Neuronal acetylcholine receptor; alpha2/beta2 (P12390 whole entry): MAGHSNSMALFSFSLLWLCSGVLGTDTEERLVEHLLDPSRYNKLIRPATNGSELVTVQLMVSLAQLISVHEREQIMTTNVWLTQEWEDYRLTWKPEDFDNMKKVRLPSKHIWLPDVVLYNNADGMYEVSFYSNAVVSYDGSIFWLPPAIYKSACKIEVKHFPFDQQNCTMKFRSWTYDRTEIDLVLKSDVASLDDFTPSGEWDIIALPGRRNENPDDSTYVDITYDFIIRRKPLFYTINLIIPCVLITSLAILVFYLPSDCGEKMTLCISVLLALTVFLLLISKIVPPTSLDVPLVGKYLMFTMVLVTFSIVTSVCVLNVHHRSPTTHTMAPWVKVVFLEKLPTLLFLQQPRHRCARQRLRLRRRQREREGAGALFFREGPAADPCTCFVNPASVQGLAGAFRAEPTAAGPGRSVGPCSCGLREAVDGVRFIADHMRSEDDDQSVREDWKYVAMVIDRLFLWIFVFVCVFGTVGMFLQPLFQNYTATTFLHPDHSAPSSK

[3] = molecular target: Neuronal acetylcholine receptor; alpha3/beta2 (Rattus norvegicus, UniProt P04757+P12390); experiment: Binding affinity towards Nicotinic acetylcholine receptor alpha3-beta2 using [3H]epibatidine
Sequence of Neuronal acetylcholine receptor; alpha3/beta2 (P04757 whole entry): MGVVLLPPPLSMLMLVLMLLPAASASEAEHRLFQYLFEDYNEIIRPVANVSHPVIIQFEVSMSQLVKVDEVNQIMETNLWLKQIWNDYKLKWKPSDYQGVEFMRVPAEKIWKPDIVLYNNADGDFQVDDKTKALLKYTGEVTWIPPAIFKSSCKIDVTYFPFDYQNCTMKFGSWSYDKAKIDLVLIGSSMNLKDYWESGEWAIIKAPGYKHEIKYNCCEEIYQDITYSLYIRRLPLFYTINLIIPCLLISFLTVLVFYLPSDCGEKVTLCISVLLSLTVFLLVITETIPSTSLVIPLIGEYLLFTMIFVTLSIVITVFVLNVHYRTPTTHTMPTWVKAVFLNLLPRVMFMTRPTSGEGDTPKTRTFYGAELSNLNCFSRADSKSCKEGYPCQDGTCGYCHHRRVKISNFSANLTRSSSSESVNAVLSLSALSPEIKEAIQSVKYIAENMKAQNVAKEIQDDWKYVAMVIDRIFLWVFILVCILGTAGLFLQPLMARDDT
Sequence of Neuronal acetylcholine receptor; alpha3/beta2 (P12390 whole entry): as the sequence (P12390 whole entry) above

[4] = molecular target: Neuronal acetylcholine receptor; alpha4/beta2 (Rattus norvegicus, UniProt P09483+P12390); experiment: Binding affinity towards Nicotinic acetylcholine receptor alpha4-beta2 using [3H]epibatidine
Sequence of Neuronal acetylcholine receptor; alpha4/beta2 (P09483 whole entry): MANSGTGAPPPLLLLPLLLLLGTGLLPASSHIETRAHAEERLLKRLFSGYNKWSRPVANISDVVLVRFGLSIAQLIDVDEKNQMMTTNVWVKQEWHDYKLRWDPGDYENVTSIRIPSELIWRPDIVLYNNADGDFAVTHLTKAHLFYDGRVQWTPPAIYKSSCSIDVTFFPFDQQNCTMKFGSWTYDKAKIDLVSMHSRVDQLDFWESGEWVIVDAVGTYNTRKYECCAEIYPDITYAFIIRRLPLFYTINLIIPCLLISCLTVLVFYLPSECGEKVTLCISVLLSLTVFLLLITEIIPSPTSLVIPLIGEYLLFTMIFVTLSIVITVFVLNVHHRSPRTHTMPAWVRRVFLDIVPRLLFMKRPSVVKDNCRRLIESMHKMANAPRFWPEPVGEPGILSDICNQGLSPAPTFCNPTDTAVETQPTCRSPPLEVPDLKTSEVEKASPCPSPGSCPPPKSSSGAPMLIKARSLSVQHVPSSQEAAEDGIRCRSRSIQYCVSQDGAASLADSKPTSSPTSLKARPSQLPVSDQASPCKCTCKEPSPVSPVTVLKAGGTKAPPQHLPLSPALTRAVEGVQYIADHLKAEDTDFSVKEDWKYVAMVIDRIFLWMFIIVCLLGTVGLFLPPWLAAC
Sequence of Neuronal acetylcholine receptor; alpha4/beta2 (P12390 whole entry): as the sequence (P12390 whole entry) above

[5] = molecular target: T1, Neuronal acetylcholine receptor; alpha3/beta4 (Rattus norvegicus, UniProt P04757+P12392); experiment: Binding affinity towards Nicotinic acetylcholine receptor alpha3-beta4
T1 sequence (P04757 whole entry): as the sequence (P04757 whole entry) above
T1 sequence (P12392 whole entry): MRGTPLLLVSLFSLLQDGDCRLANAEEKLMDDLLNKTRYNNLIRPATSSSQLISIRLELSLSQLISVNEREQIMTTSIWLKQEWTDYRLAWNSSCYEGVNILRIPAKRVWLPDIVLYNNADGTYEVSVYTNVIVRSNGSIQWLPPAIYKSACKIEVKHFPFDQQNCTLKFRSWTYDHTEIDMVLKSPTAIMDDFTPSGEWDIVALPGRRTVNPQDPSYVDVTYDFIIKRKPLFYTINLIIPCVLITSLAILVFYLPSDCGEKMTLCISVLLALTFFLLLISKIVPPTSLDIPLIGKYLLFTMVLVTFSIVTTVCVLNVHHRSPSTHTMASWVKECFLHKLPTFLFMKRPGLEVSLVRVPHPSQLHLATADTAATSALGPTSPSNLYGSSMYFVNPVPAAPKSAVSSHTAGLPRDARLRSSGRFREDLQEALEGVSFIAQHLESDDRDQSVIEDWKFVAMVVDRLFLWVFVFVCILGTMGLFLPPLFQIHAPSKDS

[6] = molecular target: Neuronal acetylcholine receptor; alpha4/beta4 (Rattus norvegicus, UniProt P09483+P12392); experiment: Binding affinity towards Nicotinic acetylcholine receptor alpha4-beta4 using [3H]epibatidine
Sequence of Neuronal acetylcholine receptor; alpha4/beta4 (P09483 whole entry): as the sequence (P09483 whole entry) above
Sequence of Neuronal acetylcholine receptor; alpha4/beta4 (P12392 whole entry): as the sequence (P12392 whole entry) above

[7] = molecular target: T1, Neuronal acetylcholine receptor; alpha3/beta4; experiment: Binding affinity towards Nicotinic acetylcholine receptor alpha3-beta4 using [3H]epibatidine

Sequence of Neuronal acetylcholine receptor; alpha2/beta4 (P12389 whole entry): as the sequence (P12389 whole entry) above
Sequence of Neuronal acetylcholine receptor; alpha2/beta4 (P12392 whole entry): as the sequence (P12392 whole entry) above

SMILES	Ki [1] [nM]	Ki [2] [nM]	Ki [3] [nM]	Ki [4] [nM]	Ki [5] [nM]	Ki [6] [nM]	Ki [7] [nM]
Clc1ccc(C2CC3CCC2N3CCN2C3CCC2C(c2ccc(Cl)nc2)C3)cn1 (centres undefined)	26.8	2.08	5.44	9.33	47.8	27.7	–
Clc1ccc(C2CC3CCC2N3CCCCCCN2C3CCC2C(c2ccc(Cl)nc2)C3)cn1 (centres undefined)	47.8	3.13	6.19	9.05	–	40.4	82.2
Clc1ccc(C2CC3CCC2N3CCCN2C3CCC2C(c2ccc(Cl)nc2)C3)cn1 (centres undefined)	57.3	5.53	8.99	15.7	–	54.2	112
Clc1ccc(C2CC3CCC2N3CCCCCCCCCCN2C3CCC2C(c2ccc(Cl)nc2)C3)cn1 (centres undefined)	71.7	7.51	12.6	21.6	–	61.3	138
